Where two headings read alike, the source gives them in different places.
How the values were obtained:
PAF-induced hyperalgesia = assay: Platelet Activating Factor-Induced Hyperalgesia in the Rat; assay type: in vivo, rat (female Sprague-Dawley); settings: for effect in the PAF-induced hyperalgesia assay (in words): pain response to PAF, rat; for % Analgesia (percentage of animals with vocalization threshold greater than 200 of vehicle-treated controls): Table 1, 30 min before PAF, readings 3 hours after PAF
Method: In this assay, which is sensitive to inhibition by lipoxygenase inhibitors, but not cyclooxygenase inhibitors, compounds of formula (I) reduced the pain response to PAF (Table 1).
Groups of 10 female Sprague-Dawley rats, 35-50 g (Taconic Farms), were fasted overnight prior to testing. Hyperalgesia was induced in the rat by the subplantar injection of 1 ug PAF in physiological saline. Pain threshold was measured by applying pressure to the plantar surface of the hindpaw by means of a compressed air driven piston with a 2 mm tip. Vocalization thresholds were obtained 3 hr after injection of the PAF. Compounds, prepared at various doses in 1% methylcellulose suspension, were administered perorally 30 min before PAF. For each drug treatment group, animals with response pressures in the inflamed paw of 200% of control was considered to be analgesic. The mean vocalization threshold for each group was also calculated.

[1] = molecular target: T1, RBL-1 cell 5-lipoxygenase (Rattus norvegicus, UniProt P12527); assay: Inhibition of RBL-1 Cell 5-Lipoxygenase (5-HETE formation); assay type: biochemical; settings: read-out: Percent Inhibition
T1 construct: measured in vitro against the RBL-1 cell 5-lipoxygenase; endogenous in cells; host or cells: RBL-1 cells
T1 sequence (P12527 1-673): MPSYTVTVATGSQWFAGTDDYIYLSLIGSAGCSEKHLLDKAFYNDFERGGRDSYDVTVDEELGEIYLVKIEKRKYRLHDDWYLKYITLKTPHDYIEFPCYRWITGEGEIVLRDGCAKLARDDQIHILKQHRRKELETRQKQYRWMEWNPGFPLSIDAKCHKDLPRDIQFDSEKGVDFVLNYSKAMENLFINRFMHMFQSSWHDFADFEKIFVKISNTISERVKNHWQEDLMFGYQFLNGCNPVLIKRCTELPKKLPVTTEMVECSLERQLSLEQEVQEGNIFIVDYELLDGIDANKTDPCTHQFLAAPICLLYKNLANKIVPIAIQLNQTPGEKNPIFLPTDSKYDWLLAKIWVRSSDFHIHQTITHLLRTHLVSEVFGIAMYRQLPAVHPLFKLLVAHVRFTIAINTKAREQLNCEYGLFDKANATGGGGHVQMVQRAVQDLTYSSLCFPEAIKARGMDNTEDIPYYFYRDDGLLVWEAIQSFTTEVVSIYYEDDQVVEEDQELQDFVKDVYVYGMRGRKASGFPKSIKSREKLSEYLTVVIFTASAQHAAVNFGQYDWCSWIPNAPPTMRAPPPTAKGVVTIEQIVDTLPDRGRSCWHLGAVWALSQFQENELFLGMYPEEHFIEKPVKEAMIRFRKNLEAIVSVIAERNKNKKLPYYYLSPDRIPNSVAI
Method: The ability of the compound of Formula I, e.g., Compound A, to inhibit leukotriene biosynthesis was also measured in vitro against the RBL-1 cell 5-lipoxygenase. The protocol for measuring inhibition of 5-HETE formation has been published in R. W. Egan et al., "Advances in Prostaglandin, Thromboxane, and leukotriene Research", Vol. 11 (edited by B. Samuelsson et al., Raven Press, N.Y., 1983), p. 151.

[2] = test system: microsomal ram vesicular gland cyclooxygenase; assay: Inhibition of microsomal ram vesicular gland cyclooxygenase; assay type: biochemical
Excerpt: The protocol for measuring inhibition of this prostaglandin-producing enzyme has been published.

[3] = Rattus norvegicus, po, 3 h, read-out: % Rats Exhibiting Analgesia
[4] = Rattus norvegicus, Platelet, po, 3 h, Table 2, 30 mg/kg p.o., read-out: % Rats Exhibiting Analgesia

SMILES	responders at 30 mg/kg (PAF-induced hyperalgesia; [4]) [%]	effect in the PAF-induced hyperalgesia assay (in words) (PAF-induced hyperalgesia)	other results
CC(=O)Oc1ccccc1C(=O)O [Aspirin]	–	–	responders at 100 mg/kg (PAF-induced hyperalgesia; [3]): 10%
CC(C)Cc1ccc(C(C)C(=O)O)cc1 (centres unmarked) [Ibuprofen]	10	completely ineffective	–
CSc1ccc2sc(C(=O)Nc3cccc(Cl)c3)c(O)c2c1 [Compound A, --N--(3chlorophenyl)-3-hydroxy-5-(methylthio)benzo[b]thiophene2-carbxamide]	90	–	% Analgesia (percentage of animals with vocalization threshold greater than 200 of vehicle-treated controls) (PAF-induced hyperalgesia; 30 mg/kg p.o.): 90%; inhibition at 0.5 µg/mL ([1]; 0.5 ug/ml): 48%; inhibition at 1 µg/mL ([1]; 1 ug/ml): 58%; inhibition at 2 µg/mL ([1]; 2 ug/ml): 74%; inhibition at 10 µg/mL ([1]; 10 ug/ml): 83%; Percent Inhibition [2]: 95%
CC(C(=O)O)c1ccc2oc(-c3ccc(Cl)cc3)nc2c1 (centres unmarked) [Benoxaprofen]	10	completely ineffective	–
CSc1ccc2sc(C(=O)NCc3ccccc3)c(O)c2c1 [Compound B, 3Hydroxy-5-(methylthio)---N--(phenylmethyl)benzo[b]thiophene2-carboxmide]	–	–	% Analgesia (percentage of animals with vocalization threshold greater than 200 of vehicle-treated controls) (PAF-induced hyperalgesia; 30 mg/kg p.o.): 80%
COc1ccc2cc([C@H](C)C(=O)O)ccc2c1 [Naproxen]	–	–	responders at 30 mg/kg (PAF-induced hyperalgesia; [3]): 10%
CN1C(C(=O)Nc2ccccn2)=C(O)c2ccccc2S1(=O)=O [Piroxicam]	0	completely ineffective	–
O=C(O)c1cc(-c2ccc(F)cc2F)ccc1O [Diflunisal]	10	–	–
CC1=C(CC(=O)O)c2cc(F)ccc2/C1=C\c1ccc([S+](C)[O-])cc1 (centres unmarked) [Sulindac]	10	–	–
COc1ccc2c(c1)c(CC(=O)O)c(C)n2C(=O)c1ccc(Cl)cc1 [Indomethacin]	–	completely ineffective	responders at 10 mg/kg (PAF-induced hyperalgesia; [3]): 10%
